According to patent US20030069276A1, “Amino piperidine derivatives” (priority 2001, published 2003):

molecular target: human CCR5 (Homo sapiens, UniProt P51681); assay: gp120-sCD4-CCR5 binding assay (FACS); conditions: CHO-K1 cell line stably transfected with the human CCR5 gene; biotinylated gp120 (JRFL strain) and soluble recombinant CD4; 1% DMSO
Protocol: gp120-sCD4-CCR5 Binding Assay:
The gp120-sCD4-CCR5 binding assay was carried out as previously described (Dragic, T., A. Trkola, et al. (2000). “A binding pocket for a small molecule inhibitor of HIV-1 entry within the transmembrane helices of CCR5.” Proc Natl Acad Sci USA 97: 5639-44.) with the following minor modifications: the cell line used for these experiments was a CHO-K1 cell line stably transfected with the human CCR5 gene; the gp120-CD4 complex comprised recombinant biotinylated gp120 (JRFL strain) and soluble recombinant CD4; and all compounds were tested in a final concentration of 1% DMSO.
All reagents and cell lines were obtained from Progenics Pharmaceuticals Inc, Tarrytown, N.Y., USA, and are commercially available or can be prepared according to the methods described and the information given in the papers above.

Chain of human CCR5 (P51681 whole entry): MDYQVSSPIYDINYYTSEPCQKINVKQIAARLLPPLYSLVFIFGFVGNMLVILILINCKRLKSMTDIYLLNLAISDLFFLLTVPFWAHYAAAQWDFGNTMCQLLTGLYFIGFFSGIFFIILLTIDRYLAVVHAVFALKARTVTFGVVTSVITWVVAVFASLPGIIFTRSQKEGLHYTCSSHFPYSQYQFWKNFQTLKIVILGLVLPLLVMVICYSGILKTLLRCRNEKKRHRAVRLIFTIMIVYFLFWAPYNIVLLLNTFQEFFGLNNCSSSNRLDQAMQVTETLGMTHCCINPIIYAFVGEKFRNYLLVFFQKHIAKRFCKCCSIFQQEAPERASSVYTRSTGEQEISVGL

IC50 [µM]	SMILES
0.03	Cc1ccc(-c2nc(CN3CCC(N(Cc4ccccc4)C(=O)Nc4ccccc4)CC3)c(C)[nH]2)cc1 [1-Benzyl-1-[1-[5-methyl-2-(4-methylphenyl)-1H-imidazol-4-ylmethyl]-4-piperidinyl]-3-phenylurea]
0.45	Cc1[nH]c(-c2ccc(C(F)(F)F)cc2)nc1CN1CCC(N(Cc2ccccc2)C(=O)Nc2ccc([N+](=O)[O-])cc2)CC1 [1-Benzyl-1-[1-[[2-[4-(trifluoromethyl)phenyl]-5-methyl-1H-imidazol-4-yl]methyl]-4-piperidinyl]-3-(4-nitrophenyl)urea]
1.1	CNC(=O)N(Cc1ccccc1)C1CCN(Cc2c(C)nc(-c3ccc(C(F)(F)F)cc3)n2Cc2ccccc2)CC1 [1-Benzyl-1-[1-[[3-benzyl-5-methyl-2-[4-(trifluoromethyl)phenyl]-3H-imidazol-4-yl]methyl]-4-piperidinyl]-3-methylurea]
9.6	CNC(=O)N(Cc1ccccc1)C1CCN(Cc2nc(-c3ccccc3OC)[nH]c2C)CC1 [1-Benzyl-1-{1-[2-(2-methoxy-phenyl)-5-methyl-1H-imidazol-4-ylmethyl]-piperidin-4-yl}-3-methyl-urea]
0.11	CNC(=O)N(Cc1ccccc1)C1CCN(Cc2nc(-c3ccc(C(F)(F)F)cc3)[nH]c2C)CC1 [1-Benzyl-3-methyl-1-[1-[[5-methyl-2-[4-(trifluoromethyl)phenyl]-1H-imidazol-4-yl]methyl]-4-piperidinyl]urea]
19.1	CNC(=O)N(Cc1ccccc1)C1CCN(Cc2nc(-c3ccc(C(F)(F)F)cc3)[nH]c2-c2ccccc2)CC1 [1-Benzyl-3-methyl-1-[1-[[5-phenyl-2-[4-(trifluoromethyl)phenyl]-1H-imidazol-4-yl]methyl]-4-piperidinyl]urea]
